Assay results published in patent publication US11371055B2, “Herbicide resistance genes” (CORTEVA AGRISCIENCE LLC, priority 2005, dated 2022).

Tests used:
AAD-12 (v2) [1] = target: T1, AAD-12 (v2) (Delftia acidovorans, UniProt P83309); assay: Colorimetric phenol detection assay of AAD-12 activity; type: biochemical; conditions: for activity of AAD-12 (v2) on substrate (absorbance at 510 nm, FIG. 3): 4.4 μg AAD-12 (v2), 5 minutes
T1 construct: made in house; host or cells: Pseudomonas fluorescens strain MB324 (construct pDAB739)
Experimental: Enzyme activity was measured by colorimetric detection of the product phenol using a protocol modified from that of Fukumori and Hausinger (1993) (J. Biol. Chem. 268: 24311-24317) to enable deployment in a 96-well microplate format. The colorimetric assay has been described for use in measuring the activity of dioxygenases cleaving 2,4-D and dichlorprop to release the product 2,4-dichlorophenol. The color yield from several phenols was compared to that of 2,4-dichlorophenol using the detection method previously described to ascertain which phenol products could be readily detected. […] Pyridinols derived from fluroxypyr and triclopyr produced no significant color. The color yield of 2,4-dichlorophenol was linear and proportional to the concentration of phenol in the assay up to ˜500 μM.
Assays were initiated by addition of the aryloxyalkanoate substrate, enzyme or α-ketoglutarate at time zero. After 5 minutes of incubation at 25° C., the reaction was terminated by addition of 30 μl of a 1:1:1 mix of 50 mM Na EDTA; pH 10 buffer (3.09 g boric acid+3.73 g KCl+44 ml 1 N KOH) and 0.2% 4-aminoantipyrine. Then 10 μl 0.8% potassium ferricyanide was added and after 5 or 10 min, the absorbance at 510 nm was recorded in a spectrophotometric microplate reader. Blanks contained all reagents except for enzyme to account for the occasional slight contamination of some of the substrates by small amounts of phenols.
The results are shown in FIG. 3, which illustrates activity of AAD-12 (v2) on 2,4-D and enantiomers of dichlorprop. 4.4 μg AAD-12 (v2) was incubated with 0.5 mM substrate (1 mM for (R,S)-dichlorprop) and the reaction initiated by addition of α-ketoglutarate. After 5 minutes, the reaction was quenched, and the absorbance at 510 nm determined after addition of colorimetric detection reagents. The background value without enzyme was subtracted.

[2] = tested on: Segregating T2 AAD-12 (v1) plants (pDAB724.01.1.20); assay: Foliar-applied auxinic herbicides on T2 Arabidopsis; type: in vivo, Arabidopsis thaliana; conditions: Inactive DCP metabolite
Experimental: (§1) The ability of AAD-12 (v1) to provide resistance to other aryloxyalkanoate auxin herbicides in transgenic Arabidopsis was determined by foliar application of various substrates. T2 generation Arabidopsis seed was stratified, and sown into selection trays much like that of Arabidopsis (Example 6.4). A transformed-control line containing PAT and the insect resistance gene Cry1F was planted in a similar manner. Seedlings were transferred to individual 3-inch pots in the greenhouse. All plants were sprayed with the use of a track sprayer set at 187 L/ha. The plants were sprayed with a range of pyridyloxyacetate herbicides: 280-2240 g ae/ha triclopyr (Garlon 3A, Dow AgroSciences) and 280-2240 g ae/ha fluroxypyr (Starane, Dow AgroSciences); and the 2,4-D metabolite resulting from AAD-12 activity, 2,4-dichlorophenol (DCP, Sigma) (at a molar equivalent to 280-2240 g ac/ha of 2,4-D, technical grade DCP was used). All applications were formulated in water. Each treatment was replicated 3-4 times. Plants were evaluated at 3 and 14 days after treatment.

[3] = tested on: Pat/Cry1f-Control Arabidopsis; assay: Foliar-applied auxinic herbicides on transformed control Arabidopsis; type: in vivo, Arabidopsis thaliana; conditions: for Ave % Injury 14DAT: Inactive DCP metabolite
Experimental: as §1

AAD-12 (v2) [4] = target: T1, AAD-12 (v2); assay: Chloropyridinol detection assay (absorbance at 325 nm); type: biochemical; conditions: 6.8 μg AAD-12 (v2), 1 mM substrate; for Rate (mAU/min): 325 nm, background rate 1.4 mAU/min subtracted
Text: AAD-12 action on potential substrates such as the herbicide triclopyr containing a substituted pyridine (rather than benzene rings) will release a pyridinol on cleavage of the aryloxyalkanoate bond. Pyridinols were not detected using the aminoantipyrine/ferricyanide phenol detection described in the preceding section. […] This was used to create a continuous microplate-based spectrophotometric assay.
All five pyridyloxyalkanoates were cleaved to release pyridinols by AAD-12 (v2). The rates for the oxypropionate substrates 116844 and 91767 were somewhat faster than those for the corresponding acetates (triclopyr and 93833 respectively) indicating a preference of AAD-12 (v2) for oxypropionate over oxyacetate side chains.

[5] = tested on: AAD-12 (v1) (pDAS1580) T2 tobacco plants; assay: Auxinic herbicide cross tolerance of stacked tobacco, AAD-12 T2; type: in vivo, Nicotiana tabacum; conditions: 280 g ae/ha
Experimental: (§2) Homozygous AAD-12 (v1) (pDAS1580) and AAD-1 (v3) (pDAB721) plants (see PCT/US2005/014737 for the latter) were both reciprocally crossed and F1 seed was collected. The F1 seed from two reciprocal crosses of each gene were stratified and treated 4 reps of each cross were treated under the same spray regimen as used for the other testing with one of the following treatments: 70, 140, 280 g ac/ha fluroxypyr (selective for the AAD-12 (v1) gene); 280, 560, 1120 g ae/ha R-dichloroprop (selective for the AAD-1 (v3) gene); or 560, 1120, 2240 g ae/ha 2,4-D DMA (to confirm 2,4-D tolerance). Homozygous T2 plants of each gene were also planted for use as controls. Plants were graded at 3 and 14 DAT.

[6] = tested on: AAD-1 (v3) (pDAB721) T2 tobacco plants; assay: Auxinic herbicide cross tolerance of stacked tobacco, AAD-1 T2; type: in vivo, Nicotiana tabacum; conditions: 280 g ae/ha
Experimental: as §2

[7] = tested on: AAD-12 x AAD-1 F1 cross tobacco; assay: Auxinic herbicide cross tolerance of stacked tobacco, F1 cross; type: in vivo, Nicotiana tabacum; conditions: AAD-12 (v1) x AAD (v3) F1; 280 g ae/ha
Experimental: as §2

wildtype tobacco = assay: Auxinic herbicide cross tolerance of stacked tobacco, wildtype; type: in vivo, Nicotiana tabacum; conditions: KY160 wildtype control; 280 g ae/ha
Experimental: as §2

[8] = tested on: AAD-12 v1 gene + EPSPS + HptII (pDAB3759) T1 Arabidopsis; assay: Glyphosate postemergence dose response, AAD-12 + EPSPS stack; type: in vivo, Arabidopsis thaliana; conditions: 14 DAT
Experimental: (§3) T1 Arabidopsis seed was produced, as previously described, containing the pDAB3759 plasmid (AAD-12 (v1)+EPSPS) which encodes a putative glyphosate resistance trait. T1 transformants were selected using AAD-12 (v1) as the selectable marker as described in example 7.6. T1 plants (individually transformed events) were recovered from the first selection attempt and transferred to three-inch pots in the greenhouse as previously described. Three different control Arabidopsis lines were also tested: wildtype Columbia-0, AAD-12 (v1)+PAT T4 homozygous lines (pDAB724-transformed), and PAT+Cry1F homozygous line (transformed control). The pDAB3759 and pDAB724 transformed plants were pre-selected at the seedling stage for 2,4-D tolerance. Four days after transplanting, plants were evenly divided for foliar treatment by track sprayer as previously described with 0, 26.25, 105, 420, or 1680 g ae/ha glyphosate (Glyphomax Plus, Dow AgroSciences) in water. All treatments were replicated 5 to 20 times. Plants were evaluated 7 and 14 days after treatment.

PAT/Cry1F Arabidopsis = assay: Glyphosate postemergence dose response, PAT/Cry1F control; type: in vivo, Arabidopsis thaliana; conditions: 14 DAT
Experimental: as §3

[9] = tested on: Wildtype (Col-0) Arabidopsis; assay: Glyphosate postemergence dose response, wildtype; type: in vivo, Arabidopsis thaliana; conditions: 14 DAT
Experimental: as §3

[10] = tested on: pDAB724 T4 (PAT + AAD-12) Arabidopsis; assay: Glyphosate postemergence dose response, pDAB724 T4; type: in vivo, Arabidopsis thaliana; conditions: 14 DAT
Experimental: as §3

[11] = 280 g ae/ha (molar equivalent of 2,4-D) foliar
[12] = 560 g ae/ha (molar equivalent of 2,4-D) foliar
[13] = 1120 g ae/ha (molar equivalent of 2,4-D) foliar
[14] = 2240 g ae/ha (molar equivalent of 2,4-D) foliar
[15] = 26.25 g ae/ha glyphosate postemergence
[16] = 105 g ae/ha glyphosate postemergence
[17] = 420 g ae/ha glyphosate postemergence
[18] = 1680 g ae/ha glyphosate postemergence

T1 sequence (P83309 whole entry, looked up, natural form): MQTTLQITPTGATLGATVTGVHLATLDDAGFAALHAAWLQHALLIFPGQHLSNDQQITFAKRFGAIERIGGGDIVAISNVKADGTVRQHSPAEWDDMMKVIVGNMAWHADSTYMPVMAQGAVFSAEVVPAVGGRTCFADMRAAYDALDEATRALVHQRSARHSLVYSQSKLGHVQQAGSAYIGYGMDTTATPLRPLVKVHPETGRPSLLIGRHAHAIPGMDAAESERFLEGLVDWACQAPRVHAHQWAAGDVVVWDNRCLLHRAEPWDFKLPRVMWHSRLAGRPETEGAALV

## CC(Oc1ccc(Cl)cc1Cl)C(=O)O (racemic) [(R,S)-dichlorprop]
AAD-12 (v2) [1]; 1 mM substrate
  activity of AAD-12 (v2) on substrate (absorbance at 510 nm, FIG. 3): excellent activity
AAD-12 (v2) [1]; Phenol detection
  Substrate inhibition at 2 mM: 55%
  kcat, min^−1 (±SE): 63.4 (±0.5) min^−1
AAD-12 (v2) [1]; Phenol detection, for (R,S)-dichlorprop calculated assuming 50% of the racemic mixture was available as a substrate, read-out: Km, μM (±SE)
  Km: 122 µM

## Oc1ccc(Cl)cc1Cl [2,4-DCP, 2,4-dichlorophenol]
[2]; [11]
  Ave % Injury 14DAT: 0%
[2]; [12]
  Ave % Injury 14DAT: 0%
[2]; [13]
  Ave % Injury 14DAT: 0%
[2]; [14]
  Ave % Injury 14DAT: 0%
[3]; [11]
  Ave % Injury 14DAT: 0%
[3]; [12]
  Ave % Injury 14DAT: 0%
[3]; [13]
  Ave % Injury 14DAT: 0%
[3]; [14]
  Ave % Injury 14DAT: 0%
[3]; molar equivalent to 280-2240 g ae/ha of 2,4-D
  effect on plants after foliar application: no effect

## C[C@H](Oc1ccc(Cl)cc1Cl)C(=O)O [(S)-dichlorprop]
AAD-12 (v2) [1]; 0.5 mM substrate
  activity of AAD-12 (v2) on substrate (absorbance at 510 nm, FIG. 3): excellent activity

## CC(Oc1ncc(Cl)cc1Cl)C(=O)O (stereo not drawn) [compound 66357]
AAD-12 (v2) [4]
  Rate relative to triclopyr: 2.3
  Rate (mAU/min): 225 mAU/min

## CC(Oc1nc(F)c(Cl)cc1Cl)C(=O)O (stereo not drawn) [compound 91767]
AAD-12 (v2) [4]
  Rate relative to triclopyr: 0.8
  Rate (mAU/min): 190 mAU/min

## O=C(O)COc1nc(F)c(Cl)cc1Cl [compound 93833]
AAD-12 (v2) [4]
  Rate relative to triclopyr: 0.5
  Rate (mAU/min): 118 mAU/min

## CC(Oc1nc(Cl)c(Cl)cc1Cl)C(=O)O (stereo not drawn) [compound 116844]
AAD-12 (v2) [4]
  Rate relative to triclopyr: 1.4
  Rate (mAU/min): 257 mAU/min

## Nc1c(Cl)c(F)nc(OCC(=O)O)c1Cl [fluroxypy]
[5]
  Average % injury 14 DAT: 3%
[6]
  Average % injury 14 DAT: 75%
[7]
  Average % injury 14 DAT: 3%
Wildtype tobacco
  Average % injury 14 DAT: 75%

## O=C(O)CNCP(=O)(O)O [glyphosate]
[8]; [15]
  % Injury 20-40% (number of individuals): 2
  % Injury <20% (number of individuals): 13
  % Injury >40% (number of individuals): 1
  % Injury Ave: 11%
[8]; [16]
  % Injury 20-40% (number of individuals): 1
  % Injury <20% (number of individuals): 10
  % Injury >40% (number of individuals): 5
  % Injury Ave: 34%
[8]; [17]
  % Injury 20-40% (number of individuals): 6
  % Injury <20% (number of individuals): 5
  % Injury >40% (number of individuals): 5
  % Injury Ave: 44%
[8]; [18]
  % Injury 20-40% (number of individuals): 0
  % Injury <20% (number of individuals): 0
  % Injury >40% (number of individuals): 16
  % Injury Ave: 85%
PAT/Cry1F Arabidopsis; [15]
  % Injury 20-40% (number of individuals): 0
  % Injury <20% (number of individuals): 0
  % Injury >40% (number of individuals): 5
  % Injury Ave: 67%
PAT/Cry1F Arabidopsis; [16]
  % Injury 20-40% (number of individuals): 0
  % Injury <20% (number of individuals): 0
  % Injury >40% (number of individuals): 5
  % Injury Ave: 100%
PAT/Cry1F Arabidopsis; [17]
  % Injury 20-40% (number of individuals): 0
  % Injury <20% (number of individuals): 0
  % Injury >40% (number of individuals): 5
  % Injury Ave: 100%
PAT/Cry1F Arabidopsis; [18]
  % Injury 20-40% (number of individuals): 0
  % Injury <20% (number of individuals): 0
  % Injury >40% (number of individuals): 5
  % Injury Ave: 100%
[9]; [15]
  % Injury 20-40% (number of individuals): 0
  % Injury <20% (number of individuals): 0
  % Injury >40% (number of individuals): 5
  % Injury Ave: 75%
[9]; [16]
  % Injury 20-40% (number of individuals): 0
  % Injury <20% (number of individuals): 0
  % Injury >40% (number of individuals): 5
  % Injury Ave: 100%
[9]; [17]
  % Injury 20-40% (number of individuals): 0
  % Injury <20% (number of individuals): 0
  % Injury >40% (number of individuals): 5
  % Injury Ave: 100%
[9]; [18]
  % Injury 20-40% (number of individuals): 0
  % Injury <20% (number of individuals): 0
  % Injury >40% (number of individuals): 5
  % Injury Ave: 100%
[10]; [15]
  % Injury 20-40% (number of individuals): 0
  % Injury <20% (number of individuals): 0
  % Injury >40% (number of individuals): 5
  % Injury Ave: 66%
[10]; [16]
  % Injury 20-40% (number of individuals): 0
  % Injury <20% (number of individuals): 0
  % Injury >40% (number of individuals): 5
  % Injury Ave: 100%
[10]; [17]
  % Injury 20-40% (number of individuals): 0
  % Injury <20% (number of individuals): 0
  % Injury >40% (number of individuals): 5
  % Injury Ave: 100%
[10]; [18]
  % Injury 20-40% (number of individuals): 0
  % Injury <20% (number of individuals): 0
  % Injury >40% (number of individuals): 5
  % Injury Ave: 100%
